Reference: PubChem BioAssay AID330 (DTP/NCI, 2004)
Toxic doses and inconclusive results are not listed. Rule for the calls: active = survival T/C of 150% or more; inactive = T/C below 125% in these data.

Tested on: P388 leukemia ip, CD2F1 mice, survival T/C
Assay: NCI In Vivo Anticancer Drug Screen. Data for tumor model P388 Leukemia (intraperitoneal) in CD2F1 (CDF1) mice
Conditions: endpoint: median survival time, higher = longer survival
How it was run: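 Mice carrying the transplanted tumor received test compound or vehicle. Survival was recorded in each group, and the value is the treated-group measurement divided by that of the vehicle-treated control group.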

[1] = dose: 12.5 mg/kg/injection, schedule: Q01DX009 (ip), vehicle: water
[2] = dose: 25.0 mg/kg/injection, schedule: Q01DX009 (ip), vehicle: water
[3] = dose: 50.0 mg/kg/injection, schedule: Q01DX009 (ip), vehicle: water
[4] = dose: 100.0 mg/kg/injection, schedule: Q04DX003 (ip), vehicle: saline with Tween-80
[5] = dose: 200.0 mg/kg/injection, schedule: Q04DX003 (ip), vehicle: saline with Tween-80
[6] = dose: 400.0 mg/kg/injection, schedule: Q04DX003 (ip), vehicle: saline with Tween-80
[7] = dose: 50.0 mg/kg/injection, schedule: Q01DX005 (ip), vehicle: Klucel (hydroxypropylcellulose) (HPC)
[8] = dose: 100.0 mg/kg/injection, schedule: Q01DX005 (ip), vehicle: Klucel (hydroxypropylcellulose) (HPC)
[9] = dose: 200.0 mg/kg/injection, schedule: Q01DX005 (ip), vehicle: Klucel (hydroxypropylcellulose) (HPC)
[10] = dose: 100.0 mg/kg/injection, schedule: Q01DX009 (ip), vehicle: water
[11] = dose: 12.5 mg/kg/injection, schedule: Q01DX005 (ip), vehicle: Klucel (hydroxypropylcellulose) (HPC)
[12] = dose: 25.0 mg/kg/injection, schedule: Q01DX005 (ip), vehicle: Klucel (hydroxypropylcellulose) (HPC)
[13] = dose: 12.5 mg/kg/injection, schedule: Q01DX009 (ip), vehicle: saline
[14] = dose: 25.0 mg/kg/injection, schedule: Q01DX009 (ip), vehicle: saline
[15] = dose: 50.0 mg/kg/injection, schedule: Q01DX009 (ip), vehicle: saline with Tween-80
[16] = dose: 100.0 mg/kg/injection, schedule: Q01DX009 (ip), vehicle: saline with Tween-80
[17] = dose: 200.0 mg/kg/injection, schedule: Q01DX009 (ip), vehicle: saline with Tween-80

Measured: T/C

CCN(CC)CCCC(C)NC(C)CCCN(CC)CC (configuration not stated)
inactive: dose: 3.13 mg/kg/injection, schedule: Q01DX009 (ip), vehicle: water 112 % of control | dose: 6.25 mg/kg/injection, schedule: Q01DX009 (ip), vehicle: water 112 % of control | [1] 99 % of control | [2] 108 % of control | [3] 104 % of control

O=C1C2C3C=CC(O3)C2C(=O)N1N=C1CCCCC1 (configuration not stated)
inactive: dose: 50.0 mg/kg/injection, schedule: Q01DX005 (ip), vehicle: saline with Tween-80 99 % of control | dose: 100.0 mg/kg/injection, schedule: Q01DX005 (ip), vehicle: saline with Tween-80 101 % of control | dose: 200.0 mg/kg/injection, schedule: Q01DX005 (ip), vehicle: saline with Tween-80 101 % of control

O=C(O)C(Cc1ccc(C(=O)C(F)(F)F)cc1)NC(=O)C(F)(F)F (configuration not stated)
inactive: [4] 100 % of control | [5] 103 % of control | [6] 99 % of control

CCCn1c(C)nc2[nH]ncc2c1=O
inactive: [7] 100 % of control | [8] 98 % of control | [9] 92 % of control

O=C(NP(=O)(O)NC(Cc1ccccc1)C(=O)O)OCc1ccccc1 (configuration not stated)
inactive: dose: 50.0 mg/kg/injection, schedule: Q01DX005 (ip), vehicle: saline 106 % of control | dose: 100.0 mg/kg/injection, schedule: Q01DX005 (ip), vehicle: saline 109 % of control | dose: 200.0 mg/kg/injection, schedule: Q01DX005 (ip), vehicle: saline 102 % of control

O=C1C=C(Br)C(=O)c2c1[nH]c(=O)[nH]c2=O
inactive: dose: 8.0 mg/kg/injection, schedule: Q01DX005 (ip), vehicle: DMSO 117 % of control | dose: 16.0 mg/kg/injection, schedule: Q01DX005 (ip), vehicle: DMSO 107 % of control | dose: 32.0 mg/kg/injection, schedule: Q01DX005 (ip), vehicle: DMSO 95 % of control | dose: 64.0 mg/kg/injection, schedule: Q01DX005 (ip), vehicle: DMSO 107 % of control

O=C(Nc1ccc(O)c2c1C(=O)c1ccccc1C2=O)Oc1ccccc1
inactive: [7] 101 % of control | [8] 102 % of control | [9] 99 % of control

CC(C)(C)OP(=O)(O)OC(C)(C)C
inactive: [2] 103 % of control | [3] 100 % of control | [10] 107 % of control | dose: 200.0 mg/kg/injection, schedule: Q01DX009 (ip), vehicle: water 107 % of control | dose: 400.0 mg/kg/injection, schedule: Q01DX009 (ip), vehicle: water 112 % of control

O=S(=O)(OCCF)c1cc(Cl)c(Cl)cc1Cl
inactive: [11] 98 % of control | [12] 98 % of control | [7] 89 % of control

CC1CCCN(CCSSCCN2CCCC(C)C2)C1 (configuration not stated)
inactive: [13] 109 % of control | [14] 113 % of control | dose: 50.0 mg/kg/injection, schedule: Q01DX009 (ip), vehicle: saline 113 % of control

CC(=O)/C=C/c1ccc(O)cc1
inactive: [15] 110 % of control | [16] 98 % of control | [4] 105 % of control | [17] 100 % of control | [5] 113 % of control | [6] 105 % of control

COC(=O)C1=CC[C@@H]2C(C(=O)O)=CO[C@@H](OC3OC(CO)C(O)C(O)C3O)[C@H]12 (some centres not stated)
inactive: dose: 2.8 mg/kg/injection, schedule: Q01DX005 (ip), vehicle: saline + alcohol 101 % of control | dose: 5.5 mg/kg/injection, schedule: Q01DX005 (ip), vehicle: saline + alcohol 99 % of control | dose: 11.0 mg/kg/injection, schedule: Q01DX005 (ip), vehicle: saline + alcohol 108 % of control | dose: 22.0 mg/kg/injection, schedule: Q01DX005 (ip), vehicle: saline + alcohol 100 % of control

COC(=O)C1C2c3ccccc3C(c3ccccc32)C1(C)C(=O)OC (configuration not stated)
inactive: [7] 96 % of control | [8] 102 % of control | [9] 102 % of control

Cc1nn(C)c(NC(=O)c2ccccc2O)c1SC#N
inactive: dose: 6.25 mg/kg/injection, schedule: Q01DX005 (ip), vehicle: saline with Tween-80 93 % of control | dose: 12.5 mg/kg/injection, schedule: Q01DX005 (ip), vehicle: saline with Tween-80 93 % of control | dose: 25.0 mg/kg/injection, schedule: Q01DX005 (ip), vehicle: saline with Tween-80 93 % of control

COc1ccc2c3c1O[C@H](c1ccc(O)cc1)[C@H]3[N+](C)(C)CC2
inactive: dose: 6.25 mg/kg/injection, schedule: Q01DX005 (ip), vehicle: Klucel (hydroxypropylcellulose) (HPC) 107 % of control | [11] 110 % of control | [12] 110 % of control | [7] 103 % of control

CCOC(=O)/C=C/C(=O)NNS(=O)(=O)CCC(N)C(=O)O (configuration not stated)
inactive: [1] 101 % of control | [2] 95 % of control | [3] 100 % of control | [10] 116 % of control

CC(O)/C(=N\Nc1ccccc1)c1nc2ccccc2[nH]c1=O (configuration not stated)
inactive: dose: 30.0 mg/kg/injection, schedule: Q01DX005 (ip), vehicle: saline with Tween-80 92 % of control | dose: 60.0 mg/kg/injection, schedule: Q01DX005 (ip), vehicle: saline with Tween-80 89 % of control | dose: 120.0 mg/kg/injection, schedule: Q01DX005 (ip), vehicle: saline with Tween-80 88 % of control

CCCCCCCCCCCC(=O)Nc1ncnc2nc[nH]c12
inactive: dose: 50.0 mg/kg/injection, schedule: Q01DX009 (ip), vehicle: Klucel (hydroxypropylcellulose) (HPC) 93 % of control | dose: 100.0 mg/kg/injection, schedule: Q01DX009 (ip), vehicle: Klucel (hydroxypropylcellulose) (HPC) 95 % of control | dose: 200.0 mg/kg/injection, schedule: Q01DX009 (ip), vehicle: Klucel (hydroxypropylcellulose) (HPC) 98 % of control | dose: 400.0 mg/kg/injection, schedule: Q01DX009 (ip), vehicle: Klucel (hydroxypropylcellulose) (HPC) 104 % of control

CCCCC(=O)C(=O)c1ccc(O)c(C)c1O
inactive: [15] 96 % of control | [16] 93 % of control | [17] 96 % of control

C[As](C)SCC(NC(=O)CCC(N)C(=O)O)C(=O)NCC(=O)O (configuration not stated)
inactive: [13] 104 % of control | [14] 109 % of control | dose: 200.0 mg/kg/injection, schedule: Q01DX009 (ip), vehicle: saline 97 % of control

Cc1ccccc1C1SCC(=O)N1c1ccccn1 (configuration not stated)
inactive: [15] 104 % of control | [16] 101 % of control | [17] 95 % of control

[O-]c1n[n+](-c2ccccc2)no1
inactive: dose: 3.13 mg/kg/injection, schedule: Q01DX009 (ip), vehicle: other 97 % of control | dose: 6.25 mg/kg/injection, schedule: Q01DX009 (ip), vehicle: other 96 % of control | dose: 12.5 mg/kg/injection, schedule: Q01DX009 (ip), vehicle: other 109 % of control | dose: 25.0 mg/kg/injection, schedule: Q01DX009 (ip), vehicle: other 101 % of control

C1COC(NC2CC3CCC2C3)=N1 (configuration not stated)
inactive: dose: 6.25 mg/kg/injection, schedule: Q04DX003 (ip), vehicle: saline with Tween-80 100 % of control | dose: 12.5 mg/kg/injection, schedule: Q04DX003 (ip), vehicle: saline with Tween-80 100 % of control | dose: 25.0 mg/kg/injection, schedule: Q04DX003 (ip), vehicle: saline with Tween-80 100 % of control
